Experimental data: patent US20080125432A1 (Devgen NV, priority 2004, published 2008)
Read-outs that look alike come from different tables or passages of the source.

Columns and labels:
[1] = test system: C. elegans wild-type strain N2; assay: Same C. elegans pumping assay format using wild-type strain N2; assay type: in vivo; settings: read-out: EC50 (μM) Wild type worm N2
Description: (§1) The screening of the compounds according to the present invention has been performed in the C. elegans based high-throughput screen for Kv4.3 modulators described above. The method for testing the activity on human Kv4.3 of the compounds according to the invention with C. elegans strains expressing human Kv4.3 for their activity is the same as the method described in WO 03/097682. The method for testing the compounds on wild-type C. elegans strains not expressing human Kv4.3 is the same as the method described in WO 00/63427. Briefly, UG1755 animals have been grown in large numbers and staged young adults (no or only few eggs inside the uterus) have been harvested on the day of screening. Approximately 125 animals in 80 μl buffer have been dispensed per well of a “U shaped 96-well compound plate The compound plate contained already compound material at a final concentration of 30 μM in 0.3% DMSO. After one hour incubation 10 μl of the fluorescent label Calcein AM (CAM) have been added to achieve a final concentration of 5 μM CAM and 0.8% DMSO. After another four hours of incubation at 20° C., the drinking of C. elegans animals (or the “reaction 8 measured by the uptake of CAM) has been stopped by adding 10 μl of a 60 μM ivermectin solution. The fluorescence intensity (counts per second) has been measured 40 minutes after adding ivermectin with the Wallac plate reader at a wavelength of 535 nm (after excitation at 485 nm).
These compounds have been also tested in the same assay format using a C. elegans wild-type strain N2 and the corresponding EC50 has been calculated. The ratio of the EC50s obtained for a compound on the two strains (transgenic expressing human Kv4.3 and wild-type) gives an indication on whether said compound is acting on human Kv4.3. […]

human Kv4.3 = molecular target: T1, human Kv4.3 (Homo sapiens, UniProt Q9UK17); assay: C. elegans based high-throughput screen for Kv4.3 modulators (pharynx pumping, Calcein AM uptake), transgenic strain UG1755; assay type: in vivo; settings: for Ratio N2/Kv4.3: EC50 on N2 divided by EC50 on the Kv4.3 expressing strain, cut-off 1.8; for EC50: transgenic strain UG1755 expressing human Kv4.3, read-out: EC50 (μM) Kv4.3 worm
T1 construct: expressed in transfected cells; host or cells: transgenic C. elegans strain UG1755 (N2 injected with plasmid pGV8, integrated array)
T1 sequence (Q9UK17 1-655): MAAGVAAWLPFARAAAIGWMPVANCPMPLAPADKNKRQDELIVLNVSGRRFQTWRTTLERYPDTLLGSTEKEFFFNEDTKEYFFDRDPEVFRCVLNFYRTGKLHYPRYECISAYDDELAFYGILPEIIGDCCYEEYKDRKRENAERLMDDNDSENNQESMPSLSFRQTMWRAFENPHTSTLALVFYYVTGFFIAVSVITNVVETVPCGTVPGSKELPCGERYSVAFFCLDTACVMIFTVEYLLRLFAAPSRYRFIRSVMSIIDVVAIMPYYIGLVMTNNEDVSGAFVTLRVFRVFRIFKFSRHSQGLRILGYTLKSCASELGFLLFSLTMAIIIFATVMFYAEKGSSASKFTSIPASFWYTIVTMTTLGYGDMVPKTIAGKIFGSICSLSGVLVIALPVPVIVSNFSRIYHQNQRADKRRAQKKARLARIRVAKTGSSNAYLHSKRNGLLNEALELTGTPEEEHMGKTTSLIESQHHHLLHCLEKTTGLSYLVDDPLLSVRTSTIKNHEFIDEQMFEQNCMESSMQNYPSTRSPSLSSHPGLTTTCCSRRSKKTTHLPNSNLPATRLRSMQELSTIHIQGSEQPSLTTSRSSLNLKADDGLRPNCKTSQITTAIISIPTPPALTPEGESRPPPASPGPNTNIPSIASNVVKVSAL
Description: A C. elegans based high-throughput screen for Kv4.3 modulators has been used to establish an in vivo SAR (structure-activity relationships: the effect of chemical structure on biological activity) on Kv4.3 for the compounds according to the present invention.
This assay has employed a stable transgenic C. elegans strain that functionally expressed human Kv4.3 in the pharynx and a visible selection GFP maker in body-wall muscle.
The pharynx is the feeding organ of C. elegans and contracts rhythmically 3-4 times per second. The pharynx contraction is controlled by the nervous system via action potentials similar to the human myocyte and can thus be used to study human ion channel physiology in vivo in C. elegans.
Introducing the human Kv4.3 channel into the C. elegans pharynx influences the C. elegans action potential in a characteristic fashion. The additional number of potassium channels increases potassium ion efflux, enhances re-polarization and thereby shortens the action potential duration. […] The shortened action potentials of the C. elegans pharynx resulting from expression of human Kv4.3, changes the pharynx contraction-relaxation cycle and consequently reduces the pumping/feeding in these transgenic animals. This change of pumping is an end-point amenable to high-throughput screening technology. The pumping end-point can be technically translated into a high-throughput read-out by the use of a pro-fluorescent dye. The pro-fluorescent dye is taken up by C. elegans depending on its pumping activity and converted into a fluorescent dye by enzymes located in its intestines. After a defined incubation period, the change of fluorescence intensity in the intestine can be measured with a plate reader.
as §1
The active compounds have been identified and confirmed by dose-response analysis. An EC50 has been calculated and the results are listed under Table 3. Dose-response curves have been obtained at concentrations of 30 μM. EC50 has been calculated using XLfit 2.09 software package.

[2] = molecular target: T2, human Kv4.3/KChIP2.2 potassium channel (Homo sapiens, UniProt Q9UK17); assay: Whole cell patch clamp, CHO-K1 cells stably expressing human Kv4.3/KChIP2.2; assay type: cell-based; settings: CHO-K1
T2 construct: expressed in transfected cells
T2 sequence (Q9UK17 1-655): T1 sequence (Q9UK17 1-655)
Protocol: For this experiment, a recombinant CHO-K1 cell line stably expressing the human Kv4.3/KChIP2.2 potassium channel was used. The cells used for this experiment were kept in continuous culture under standard conditions (37° C., air supplemented with 7% CO2). The CHO-K1 Kv4.3/KChIP2.2 cells were kept in Iscove s modified DMEM (Dulbecco's Modified Eagle's Medium) medium (IMEM) supplemented with 100 U/ml Penicillin, 100 μg/ml Streptomycin, 7% fetal calf serum (FCS), 2.5 μg/ml amphotericin, 400 μg/ml G418, and 400 μg/ml Zeocin™. Cells were passed every 3-4 days after detachment using a Trypsin solution. The quality of the cultured cells was guaranteed by vitality and contamination tests. The culture of the cells was performed as described in protocol D hereunder.
10 mM stock solutions of the compounds were prepared in DMSO. Solutions of the compounds were prepared by dilution of stock solution in bath solution. If the required stock solution volume was theoretically below 1 μl, bath solutions with higher compound concentration were used for dilution. The maximal DMSO concentration during experiments was 0.1% (v/v).
Activity of the human Kv4.3/KChIP2.2 channel was investigated using the patch clamp technique in its whole cell mode. This means that the current needed for clamping the whole cell expressing the K^+-channel protein to a specific potential was measured. Experiments were performed using a patch clamp set-up. Technical equipment needed for manipulation of the cells was placed on a vibration-isolated table and shielded with a Faraday cage to minimize electrical noise. The amplifier and control system were placed in a rack outside the Faraday cage. The system consisted of an EPC9 or EPC10 patch clamp amplifier (HEKA, Lambrecht, Germany), and the perfusion system DADVC8 (ALA Scientific, New York, USA) controlled by the Pulse software package (HEKA, Lambrecht, Germany) installed on a personal computer. The pipettes used for patch clamping were made of borosilicate glass.
Measurements were performed at room temperature (20-25° C.). In each experiment (i.e. each cell) only one concentration of the compounds was investigated no cumulative dosages were performed. Each cell acted as its own control. […]
Between voltage pulses the cell was clamped to a holding potential of −80 mV (inside). The test protocols are illustrated in FIG. 1 and Table 4. The test protocol illustrated in FIG. 1a was used to characterize the properties of the Kv4.3/KChIP2.2 channel and to check the quality of the individual patch clamp experiment (voltage control). […] Each test protocol consisted of 4 segments.
After the whole cell configuration was established a current-voltage curve (IV activation 1; FIG. 1a and Table 4a) was recorded under constant superfusion with bath solution to check for Kv4.3/KChIP2.2 expression and the quality of the individual patch clamp experiment (voltage control). Subsequently, 14 test pulses (series 1; FIG. 1b and Table 4b) were applied at 0.1 Hz under constant superfusion with bath solution. The protocol was initiated by a voltage jump to 100 mV (400 ms) to achieve full inactivation. Then the Kv4.3/KChIP2.2 channels were transferred to the open state by depolarization to +40 mV for 300 milliseconds (activation). Only cells generating current amplitudes between 1 nA and 50 nA were used for the experimental procedure. No or negligible rundown was observed.
Then, 36 test pulses (series 2) were applied at 0.1 Hz under constant superfusion with the compound dissolved in bath solution. Finally, another current-voltage curve was recorded in the presence of the compounds (IV activation 2).
Three different types of analysis were used: Inhibition at the peak current, inhibition of translocated charge and inhibition 75 ms after activation at +40 mV (sustained current). The peak current/charge/current at 75 ms was determined using the online analysis tool of the HEKA pulse software package. […]

[3] = remaining current measured after application of the compound and relative to the blank, read-out: Kv4.3 charge in %
[4] = remaining peak height measured after application of the compound and relative to the blank, read-out: Kv4.3 peak in %

Structure (SMILES)	EC50 ([1]; Caenorhabditis elegans)	Ratio N2/Kv4.3 (human Kv4.3)	EC50 (human Kv4.3)	EC50 [1]	remaining activity at 1 µM [2, 3]	remaining activity at 1 µM [2, 4]	melting point
O=C(N[C@H]1CCCC[C@@H]1OCc1ccccc1)c1csc(Nc2ccc(Cl)cc2)n1 [Compound 41, 2-(4-chloro-phenylamino)-thiazole-4-carboxylic acid (1S,2S)-2-(benzyloxycyclohex-1-yl) amide]	–	2.2	22 µM	48 µM	–	–	–
Cc1cc(C)cc(Nc2nc(C(=O)N[C@H]3CCCC[C@@H]3OCc3ccccc3)cs2)c1 [Compound 46, 2-(3,5-dimethyl-phenylamino)-thiazole-4-carboxylic acid (1S,2S)-2-(benzyloxycyclohex-1-yl) amide]	39 µM	2.8	14 µM	–	–	–	–
COc1ccc(Cl)cc1Nc1nc(C(=O)N[C@@H]2CCCC[C@H]2OCc2ccccc2)cs1 [Compound 51, 2-(5-chloro-2-methoxy-phenylamino)-thiazole-4-carboxylic acid (1R,2R)-2-(benzyloxycyclohex-1-yl) amide]	> 30 µM	>1.8	17 µM	–	–	–	–
COc1ccccc1Nc1nc(C)c(C(=O)NCc2ccccc2)s1 [Compound 124, 2-(2-methoxy-phenylamino)-4-methyl-thiazole-5-carboxylic acid benzylamide]	–	–	–	–	90%	95%	153.6 to 156.2 °C
Cc1cc(C)cc(Nc2nc(C(=O)N[C@@H]3CCC[C@H]3OCc3ccccc3)cs2)c1 [Compound 45, 2-(3,5-dimethyl-phenylamino)-thiazole-4-carboxylic acid (1R,2R)-2-(benzyloxycyclopent-1-yl)-amide]	37 µM	28.0	1.3 µM	–	–	–	–
COc1ccccc1Nc1nc(C)c(C(=O)NCc2ccsc2)s1 [Compound 118, 2-(2-methoxy-phenylamino)-4-methyl-thiazole-5-carboxylic acid (thiophen-3-ylmethyl)-amide]	–	–	–	–	85%	94%	153.4 to 154.8 °C
COc1ccccc1Nc1nc(C)c(C(=O)NCc2ccc(Oc3ccccc3)cc2)s1 [Compound 102, 2-(2-methoxy-phenylamino)-4-methyl-thiazole-5-carboxylic acid 4-phenoxy-benzylamide]	–	–	–	–	76%	89%	159.7 to 162.4 °C

Second part, the compound after the results:

EC50 ([1]; Caenorhabditis elegans)	Ratio N2/Kv4.3 (human Kv4.3)	EC50 (human Kv4.3)	EC50 [1]	remaining activity at 1 µM [2, 3]	remaining activity at 1 µM [2, 4]	melting point	Structure (SMILES)
35 µM	1.8	18.9 µM	–	–	–	–	Cc1cccc(C)c1Nc1nc(C(=O)N[C@H](C)c2ccc([N+](=O)[O-])cc2)cs1 [Compound 43, 2-(2,6-dimethyl-phenylamino)-thiazole-4-carboxylic acid (R)-1-(4-nitro-phenyl)ethyl amide]
44 µM	2.5	17.3 µM	–	–	–	–	O=C(N[C@@H]1CCCC[C@H]1OCc1ccccc1)c1csc(Nc2ccc(F)cc2)n1 [Compound 38, 2-(4-fluoro-phenylamino)-thiazole-4-carboxylic acid (1R,2R)-2-(benzyloxycyclohex-1-yl) amide]
45 µM	2.0	22.7 µM	–	–	–	–	C[C@@H](NC(=O)c1csc(Nc2ccc(F)cc2)n1)c1ccc([N+](=O)[O-])cc1 [Compound 36, 2-(4-fluoro-phenylamino)-thiazole-4-carboxylic acid (R)-1-(4-nitro-phenyl)ethyl amide]
24 µM	2.4	10.1 µM	–	–	–	–	Cc1nc(Nc2ccc(F)cc2)sc1C(=O)N[C@@H](C)c1ccc2ccccc2c1 [Compound 15, 2-(4-fluoro-phenylamino)-4-methyl-thiazole-5-carboxylic acid (S)-1-(naphthalen-2-yl)ethyl amide]
> 30 µM	>2.6	11.7 µM	–	–	–	–	Cc1nc(Nc2ccc(Br)cc2)sc1C(=O)N[C@H](C)c1ccc([N+](=O)[O-])cc1 [Compound 22, 2-(4-bromo-phenylamino)-4-methyl-thiazole-5-carboxylic acid (R)-1-(4-nitrophenyl)ethyl amide]
